Results taken from patent US8546590B2, “Polar dyes” (Cepheid, priority 2005, dated 2013).

Legend:
[1] = Degradation/deprotection of arsonate ester-protected dye in 25% aqueous ammonia (Method G, HPLC); assay type: physicochemical
Protocol: (§1) Measuring of Degradation/Deprotection Rate of Arsonate Esters-protected Dye.
(§2) A protected dye (1 mg) and Methyl Red dye (0.5 mg, internal standard, λmax 482 nm) were dissolved in MeOH (5 mL) and mixed with a buffer or 25% aqueous ammonia (45 mL). Samples (1 mL) were taken over a period of degradation. The samples were quickly placed under vacuum to remove ammonia and redissolved in MeOH or used directly for HPLC analysis in buffers in a range of pH 1.6 (0.1% trifluoroacetic acid)-7.5 (0.1 M triethylammonium acetate). HPLC analysis was performed on Phenomenex Gemini 5 um C18 110A column (250×4.6 mm) using 0-100% gradient of MeCN in 0.1M triethylammonium acetate (pH 7.5) buffer. The chromatogram was detected in a range 200-600 nm using Varian ProStar PDA detector. Calculations of the relative concentrations were performed based on peaks area at 520 nm. An internal standard gives a peak at 8.6 min (λmax 482 nm).
FIG. 12 illustrates an example of a typical kinetic curve corresponding to the base-induced deprotection of a bis-pinacol protected azodye.

[2] = Degradation/deprotection of arsonate ester-protected dye in aqueous buffers (Method G, HPLC); assay type: physicochemical; settings: for stability in aqueous buffers: range of pH 1.6-7.5 in aqueous buffers
Protocol: as §1, §2

[3] = 25% aqueous ammonia, room temperature

Structure (SMILES) | stability / degradation in 25% aqueous ammonia ([1]; 25% aqueous ammonia) | degradation of the compound observed ([1]; over 3 days period, 25% aqueous ammonia at room temperature (and pH 1.6-7.5 buffers)) | stability in aqueous buffers [2] | Rate of degradation (τ1/2) [1, 3] | degradation in acidic conditions ([2]; acidic conditions, aqueous buffers) | time after which practically full deprotection was observed ([2]; buffer, room temperature, pH 7.5) | degradation at pH 7.5 ([2]; pH 7.5 aqueous buffer) | Rate of full degradation (τ1/2) ([2]; room temperature and pH 7.5 buffer) | Rate of full degradation (τ1/2) [1, 3] | time after which practically full deprotection was observed [1, 3]
CN(C)c1ccc(N=Nc2ccc([As]34(Oc5ccccc5O3)Oc3ccccc3O4)cc2)cc1 [Example 14, [4-(4′-Dimethylaminophenylazo)phenyl]arsonic acid bis-catechol chelate] | very stable | No degradation | very stable | – | – | – | – | – | – | –
CN(C)c1ccc(N=Nc2ccc([As]34(OC(C)(C)C(C)(C)O3)OC(C)(C)C(C)(C)O4)cc2)cc1 [Example 11, [4-(4′-Dimethylaminophenylazo)phenyl]arsonic acid bis-pinacolate] | degrades | – | stable | approximately 3 hr | – | – | – | – | – | –
CN(C)c1ccc(N=Nc2ccc([As]3(=O)OC(=O)C(C)(C)O3)cc2)cc1 (stereo not drawn) [Example 13, [4-(4′-Dimethylaminophenylazo)phenyl]arsonic acid, chelate with 2-hydroxy-isobutyric acid] | – | – | very unstable | – | degrades instantly | 2 h | within minutes | approximately 10 min | – | –
CN(C)c1ccc(N=Nc2ccc([As]3(=O)OC(C)(C)CC(C)(C)O3)cc2)cc1 [Example 12, [4-(4′-Dimethylaminophenylazo)phenyl]arsonic acid 2,4-dimethyl-2,4-pentanediol chelate] | degrades quickly | – | relatively stable | – | – | – | – | – | approximately 15 min | 4 h
